Peptide text beside a SMILES is read from it.
Legend:
[1] = test system: S. meliloti cells; test: Membrane potential, DiOC2(3) red/green fluorescence (BacLight kit); format: cell-based, Sinorhizobium meliloti; conditions: BacLight Bacterial Membrane Potential Kit
From the text: For the measurements, the BacLight™ Bacterial Membrane Potential Kit (Thermo Fisher Scientific) was used according to the instructions of the manufacturer.

[2] = test system: S. meliloti cells; test: Atomic force microscopy of immobilized cells; format: cell-based, Sinorhizobium meliloti
From the text: Details of the measurements and sample preparations are described in Reference 18.
Nagy K, Mikulass KR, Vegh AG, Kereszt A, Kondorosi E, Varo G, Szegletes Z: Interaction of cysteine-rich cationic antimicrobial peptides with intact bacteria and model membranes. Gen Physiol Biophys 2015, 34(2):135-144

[3] = test system: S. meliloti outer membrane; test: Outer membrane permeability, NPN fluorescence; format: cell-based, Sinorhizobium meliloti; conditions: for outer membrane permeabilization (NPN fluorescence): peptides tested at 50, 25, 12.5 and 6.25 µg/ml, 5 mM HEPES pH 7.2, 50 µg/ml = NCR335 6.4 µM, NCR247 16.6 µM, NCR001 9.5 µM, PMB 36 µM
Protocol: The cells from exponentially growing cultures were collected, washed and suspended in 5 mM HEPES buffer (pH=7.2). 80 µl NPN of 25 µM concentration and 100 µl of bacterial suspension (OD600=0.1) were pipetted into the wells of a black 96-well microtiter plate and the fluorescence were measured for 3 cycles (9 seconds/cycle) in a FLUOstar OPTIMA plate-reader (BMG Labtech). After the three cycles, 20 µl of peptide was added and the fluorescence were measured for an additional 18 cycles.

[4] = test system: rhizobia (Sinorhizobium meliloti); test: Killing assay in phosphate buffer (number of living cells); format: cell-based; conditions: 50 µg/ml peptide in phosphate buffer for three hours
Protocol: (§1) In this study, we investigated how NCR247 and NCR335 affect the cell surface as well as the outer and inner membranes (OM and IM respectively) of the α-Proteobacterium S. meliloti, the natural target of the peptides. We compared the effect of these NCR peptides to that of Polymyxin B (PMB), which alters bacterial outer membrane permeability and then disrupts the cytoplasmic membrane of gram-negative bacteria. […] NCR247 and NCR335 inhibited the growth of rhizobia at 25 and 12 µg/ml (Minimal Inhibitory Concentration), respectively, in broth microdilution assays, and were able to decrease the number of living cells by two and four orders of magnitude, respectively, when they were used at 50 µg/ml concentration in phosphate buffer for three hours. In other—including clinically relevant—bacteria, the minimal bactericid concentration of the peptides varied between 20 and 125 µg/ml (Additional file 1). […] Prolonging the treatment for 3 h caused no further changes, cells treated for 1 and 3 h were alike. These observations were in line with reported surface corrugation of the E. coli cell envelope by NCR247 [18]. Similar study on the NCR335 treated S. meliloti cultures could not be performed as the bacteria lost their attachment to the poly-L-lysine coated muscovite mica surface.

[5] = test system: fungi; conditions: cited from earlier work
From the text: (§2) Extremely rich sources of AMPs are the plants where up to several hundreds of peptide-coding genes can be expressed in specific organs constitutively or induced locally or systematically by the attack of pathogenic microbes. […] In Medicago truncatula nodule cells infected with Sinorhizobium meliloti, hundreds ...

[6] = test system: Escherichia coli cells; conditions: cited from earlier work
From the text: as §2

[7] = test system: gram-negative and gram-positive bacteria; conditions: cited from earlier work
From the text: as §2

[8] = test system: rhizobia (Sinorhizobium meliloti); test: Broth microdilution assay (Minimal Inhibitory Concentration); format: cell-based; conditions: growth inhibition of rhizobia
Protocol: as §1

[9] = test system: Salmonella typhimurium; test: Minimal bactericid concentration (MBC); format: cell-based
[10] = test system: Listeria monocytogenes; test: Minimal bactericid concentration (MBC); format: cell-based
[11] = test system: Escherichia coli K12; test: Minimal bactericid concentration (MBC); format: cell-based
[12] = test system: Staphylococcus aureus; test: Minimal bactericid concentration (MBC); format: cell-based
[13] = test system: Lactobacillus plantarum; test: Minimal bactericid concentration (MBC); format: cell-based
[14] = test system: Pseudomonas aeruginosa; test: Minimal bactericid concentration (MBC); format: cell-based
[15] = test system: Sinorhizobium meliloti AK631; test: Minimal bactericid concentration (MBC); format: cell-based

| Compound | effect on membrane potential (DiOC2(3) red/green fluorescence ratio) [1] | average height of bacteria (AFM) ([2]; 25 µg/ml, average height ~600 nm) | cell surface roughness / surface alterations (AFM) ([2]; treatment for 1 h, 3 h caused no further changes) | outer membrane damage (NPN fluorescence) ([3]; 25 µg/ml, compared with 50 µg/ml) | outer membrane damage (NPN fluorescence) ([3]; 50 µg/ml) | outer membrane damage (NPN fluorescence) ([3]; concentrations lower than 25 µg/ml) | decrease of the number of living cells [4] | antimicrobial activity against fungi [5] | surface roughness of treated Escherichia coli cells (AFM) [6] | antimicrobial activity against gram-negative and gram-positive bacteria [7] | Minimal Inhibitory Concentration [8] | MBC [9] | MBC [10] | MBC [11] | outer membrane permeabilization (NPN fluorescence) [3] | MBC [12] | MBC [13] | MBC [14] | MBC [15] |
| --- | --- | --- | --- | --- | --- | --- | --- | --- | --- | --- | --- | --- | --- | --- | --- | --- | --- | --- | --- |
| N#CC(C#N)=NNc1cccc(Cl)c1 [CCCP, carbonyl cyanide m-chlorophenyl hydrazone, reference compound] | loss of membrane potential | – | – | – | – | – | – | – | – | – | – | – | – | – | – | – | – | – | – |
| CC[C@H](C)[C@H](NC(=O)[C@H](CS)NC(=O)CNC(=O)[C@H](CC(N)=O)NC(=O)[C@@H](N)CCCNC(=N)N)C(=O)N[C@H](C(=O)N[C@@H](CC(=O)O)C(=O)N1CCC[C@H]1C(=O)N[C@@H](CCCNC(=N)N)C(=O)N[C@@H](CS)C(=O)N1CCC[C@H]1C(=O)N[C@@H](Cc1ccc(O)cc1)C(=O)N[C@@H](CCC(N)=O)C(=O)N[C@@H](CCC(N)=O)C(=O)N[C@@H](CS)C(=O)N[C@@H](CCCNC(=N)N)C(=O)N[C@@H](CCCNC(=N)N)C(=O)N1CCC[C@H]1C(=O)N[C@@H](CC(C)C)C(=O)N[C@@H](Cc1ccc(O)cc1)C(=O)N[C@@H](CS)C(=O)N[C@@H](CCCNC(=N)N)C(=O)N[C@@H](CCCNC(=N)N)C(=O)N[C@@H](CCCNC(=N)N)C(=O)O)C(C)C [NCR247] (H-RNGCIVDPRCPYQQCRRPLYCRRR-OH; C-terminus assumed) | loss of membrane potential | no change in the average height | increased the surface roughness | even weaker | only a mild damage | no effect | two | effective | increased surface roughness | effective | – | – | – | – | – | – | – | – | – |
| H-RLNTTFRPLNFKMLRFWGQNRNIMKHRGQKVHFSLILSDCKTNKDCPKLRRANVRCRKSYCVPI [NCR335, cationic nodule-specific cysteine-rich peptide of Medicago truncatula, chemically synthetized, pI 11.22] | loss of membrane potential | – | – | – | – | – | four | effective | increased surface roughness | effective | 12 µg/mL | 50 µg/mL | 20 µg/mL | 50 µg/mL | equally efficient at 50, 25 and 12.5 µg/ml but provoked a weaker OM permeabilization than PMB | 30 µg/mL | 30 µg/mL | 70 µg/mL | 50 µg/mL |
| Polymyxin B [PMB, reference compound] | loss of membrane potential | – | – | – | – | – | – | – | – | – | – | – | – | – | most pronounced effect | – | – | – | – |
